pIC50: −log10 of the molar value.
Columns and labels:
Human PI3Kα = molecular target: T1, Human PI3Kα (Homo sapiens, UniProt P42336); experiment: PI3Kα enzyme inhibitory activity (Kinase-Glo Plus luminescence); format: biochemical; settings: Human PI3Kα 12 ng/well, phosphatidylinositol 0.2 μg/well, 37° C. for 3 hours
T1 construct: purchased Millipore Corporation 14-602
Method: 2. PI3Kα Enzyme Inhibitory Activity
Human PI3Kα (12 ng/well, Millipore Corporation, Catalogue No. 14-602), phosphatidylinositol (0.2 μg/well), and the test compound were mixed in a 384-well plate in a reaction buffer (50 mM Hepes, 10 mM NaCl, 10 mM MgCl2, 2 mM EGTA, 2 mM DTT, pH 7.3) (total 10 μl), and incubated at 37° C. for 3 hours. After the reaction, 10 μL of a Kinase-Glo Plus reagent (Promega, Catalogue No. V3772) was added thereto, and a luminescence was measured with a luminometer. The IC50 value of the compound was calculated, taking the inhibition rate without addition of the enzyme as 100% and the inhibition rate without addition of the test compound as 0%, by a logistic method.
(§1) In the Table, Ex represents Example Compound No. as described later, PI3Kδ represents the IC50 value (nM) of a PI3Kδ enzyme inhibitory activity, and PI3Kα represents the IC50 value (nM) of a PI3Kα enzyme inhibitory activity.

human PI3Kδ enzyme = molecular target: T2, human PI3Kδ enzyme (Homo sapiens, UniProt O00329); experiment: PI3Kδ enzyme inhibitory activity (PI3-Kinase HTRF Assay kit); format: biochemical; settings: human PI3Kδ 10 ng/well, ATP 30 μM, PIP2 10 μM, room temperature 30 minutes
T2 construct: purchased Millipore Corporation 14-604
Method: 1. PI3Kδ Enzyme Inhibitory Activity
For the experiment, a PI3-Kinase HTRF Assay kit (Millipore Corporation, Catalogue No. 33-016) and a human PI3Kδ enzyme (Millipore Corporation, Catalogue No. 14-604) were used. The measurement method was in accordance with the appended instructions. The overview thereof is as follows.
PI3Kδ (10 ng/well), phosphatidylinositol-4,5-bisphosphate (10 μM), ATP (30 μM), and the test compound were mixed in a 384-well plate (total 20 μL), and incubated at room temperature for 30 minutes. EDTA and biotinylated phosphatidylinositol-3,4,5-triphosphate were added thereto to stop the reaction. Thereafter, a Europium labeled anti-GST antibody, a GST bond GRP1 PH domain, and streptavidin-APC were added thereto, followed by incubation overnight. An HTRF ratio was measured using an HTRF plate reader. The IC50 value of the compound was calculated, taking the inhibition rate without addition of the enzyme as 100% and the inhibition rate without addition of the test compound as 0%, by means of a logistic method.
as §1

[1] = tested on: Spleen cells (B cell proliferation); experiment: Rat B cell proliferation inhibition test (anti-rat IgM, [3H]thymidine); format: cell-based; settings: anti-rat IgM 3 μg/well, 48 hours culture, [3H]thymidine uptake
Method: 4. Rat B Cell Proliferation Inhibition Test
Spleen cells (1.0×10^5 cells/well) prepared from male LEW/CrlCrlj rats (Charles River Laboratories, Japan, Inc.), mouse F(ab′)2 fragment anti-rat IgM (3 μg/well, SouthernBiotech Associates, Inc., Catalogue No. 3082-14) and the test compound dissolved in DMSO (final DMSO concentration 0.1%) were mixed in a 96-well plate using a 10% FCS-containing RPMI-1640 culture medium (total 200 μL). They were cultured in a CO2 incubator for 48 hours and [^3H]thymidine (925 GBq/mmol, Moravek Biochemicals, Inc., Catalogue No. MT6038) was added thereto at 0.037 MBq/well at 4 hours before completion of culture. Cells were harvested in a GF/C glass filter using a cell harvester, and a radioactivity on the filter was measured using a liquid scintillation counter. The IC50 value of the compound was calculated, taking the dpm (disintegration per minute) without addition of IgM as an inhibition rate of 100% and the dpm without addition of the test compound as an inhibition rate of 0%, by a logistic method.

T1 sequence (P42336 whole entry): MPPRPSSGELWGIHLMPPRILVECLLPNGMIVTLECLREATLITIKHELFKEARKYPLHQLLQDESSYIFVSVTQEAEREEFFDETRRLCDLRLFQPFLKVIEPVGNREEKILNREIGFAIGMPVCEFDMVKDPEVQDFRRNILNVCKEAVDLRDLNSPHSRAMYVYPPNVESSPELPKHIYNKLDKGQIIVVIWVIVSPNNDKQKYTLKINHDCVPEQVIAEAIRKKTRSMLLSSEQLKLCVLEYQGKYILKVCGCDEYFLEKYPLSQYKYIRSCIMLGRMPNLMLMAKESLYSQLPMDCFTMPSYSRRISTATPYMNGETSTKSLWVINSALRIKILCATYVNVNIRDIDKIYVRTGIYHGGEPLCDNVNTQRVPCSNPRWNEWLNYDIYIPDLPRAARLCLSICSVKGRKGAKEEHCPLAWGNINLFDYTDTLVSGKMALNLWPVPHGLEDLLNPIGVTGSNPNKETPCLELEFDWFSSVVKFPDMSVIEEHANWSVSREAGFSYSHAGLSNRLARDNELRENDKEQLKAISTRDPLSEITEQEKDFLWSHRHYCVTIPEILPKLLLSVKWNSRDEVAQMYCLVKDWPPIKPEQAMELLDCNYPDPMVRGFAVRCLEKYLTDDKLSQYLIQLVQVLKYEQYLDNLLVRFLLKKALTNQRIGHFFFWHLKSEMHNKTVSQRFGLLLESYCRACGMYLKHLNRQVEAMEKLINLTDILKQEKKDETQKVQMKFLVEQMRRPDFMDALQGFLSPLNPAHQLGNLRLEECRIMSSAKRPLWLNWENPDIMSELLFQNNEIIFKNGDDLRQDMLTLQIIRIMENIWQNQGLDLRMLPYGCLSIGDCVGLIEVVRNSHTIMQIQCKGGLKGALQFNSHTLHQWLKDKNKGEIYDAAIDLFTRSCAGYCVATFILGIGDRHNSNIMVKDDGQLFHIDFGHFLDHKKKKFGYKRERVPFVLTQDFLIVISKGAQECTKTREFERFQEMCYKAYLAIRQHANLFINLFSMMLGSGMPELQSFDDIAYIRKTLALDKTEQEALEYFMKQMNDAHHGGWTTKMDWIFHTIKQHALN
T1 sequence (P27986 whole entry partner): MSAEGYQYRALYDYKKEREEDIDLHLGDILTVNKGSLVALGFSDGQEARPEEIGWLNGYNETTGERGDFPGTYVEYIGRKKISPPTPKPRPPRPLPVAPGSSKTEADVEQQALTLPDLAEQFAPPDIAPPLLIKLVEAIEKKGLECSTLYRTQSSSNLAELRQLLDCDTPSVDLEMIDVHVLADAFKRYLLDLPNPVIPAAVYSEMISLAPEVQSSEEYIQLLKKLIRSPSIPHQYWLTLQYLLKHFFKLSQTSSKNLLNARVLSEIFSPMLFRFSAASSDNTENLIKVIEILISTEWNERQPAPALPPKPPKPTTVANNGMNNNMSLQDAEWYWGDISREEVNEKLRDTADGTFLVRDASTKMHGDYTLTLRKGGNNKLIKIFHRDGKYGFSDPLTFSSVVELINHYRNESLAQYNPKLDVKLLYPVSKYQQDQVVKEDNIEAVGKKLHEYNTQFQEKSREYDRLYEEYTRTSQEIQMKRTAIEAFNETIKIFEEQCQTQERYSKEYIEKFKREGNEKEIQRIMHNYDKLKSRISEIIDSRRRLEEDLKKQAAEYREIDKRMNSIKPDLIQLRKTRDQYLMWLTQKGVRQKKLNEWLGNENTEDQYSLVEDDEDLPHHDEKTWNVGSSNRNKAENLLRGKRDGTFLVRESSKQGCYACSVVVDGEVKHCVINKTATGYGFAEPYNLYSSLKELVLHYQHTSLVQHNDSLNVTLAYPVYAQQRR
T2 sequence (O00329 whole entry): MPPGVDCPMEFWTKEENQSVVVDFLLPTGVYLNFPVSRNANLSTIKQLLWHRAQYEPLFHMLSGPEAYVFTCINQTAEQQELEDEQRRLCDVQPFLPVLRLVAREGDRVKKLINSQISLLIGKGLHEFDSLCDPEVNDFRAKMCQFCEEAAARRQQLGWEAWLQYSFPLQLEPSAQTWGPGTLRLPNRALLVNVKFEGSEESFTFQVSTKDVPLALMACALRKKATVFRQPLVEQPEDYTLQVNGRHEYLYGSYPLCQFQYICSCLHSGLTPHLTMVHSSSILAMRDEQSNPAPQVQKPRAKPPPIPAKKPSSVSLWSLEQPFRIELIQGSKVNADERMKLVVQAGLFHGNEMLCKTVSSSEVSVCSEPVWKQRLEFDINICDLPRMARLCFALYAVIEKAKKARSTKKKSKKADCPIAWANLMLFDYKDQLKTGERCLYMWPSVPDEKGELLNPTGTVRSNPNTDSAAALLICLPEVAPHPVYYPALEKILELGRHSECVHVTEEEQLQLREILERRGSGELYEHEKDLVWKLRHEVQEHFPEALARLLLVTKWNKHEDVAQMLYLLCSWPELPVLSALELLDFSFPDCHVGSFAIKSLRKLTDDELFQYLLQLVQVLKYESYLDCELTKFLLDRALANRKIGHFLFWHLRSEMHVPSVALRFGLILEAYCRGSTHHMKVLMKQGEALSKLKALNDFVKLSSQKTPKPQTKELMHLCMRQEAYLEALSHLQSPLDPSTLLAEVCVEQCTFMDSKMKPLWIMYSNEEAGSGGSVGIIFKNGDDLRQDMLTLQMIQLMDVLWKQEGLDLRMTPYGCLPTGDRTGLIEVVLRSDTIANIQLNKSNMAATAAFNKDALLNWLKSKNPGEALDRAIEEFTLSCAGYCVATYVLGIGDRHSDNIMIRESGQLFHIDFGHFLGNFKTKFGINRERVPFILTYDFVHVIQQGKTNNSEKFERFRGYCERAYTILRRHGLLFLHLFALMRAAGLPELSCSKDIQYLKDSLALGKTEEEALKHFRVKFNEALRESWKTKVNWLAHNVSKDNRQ
T2 sequence (P27986 whole entry partner): as the sequence (P27986 whole entry partner) above

| SMILES | pIC50 (Human PI3Kα) | pIC50 (human PI3Kδ enzyme) | pIC50 [1] |
| --- | --- | --- | --- |
| COCC(C)N(C)[C@H]1CC[C@H](CNc2nc(N3CCOCC3)cc(-n3c(C(F)F)nc4ccccc43)n2)CC1 (stereo partly drawn) [Example 434] | 5.72 | 8.37 | 8.89 |
| CC(C)(O)[C@@H]1CCCN1C1CCC(COc2cc(-n3c(C(F)F)nc4ccccc43)nc(N3CCOCC3)n2)CC1 (stereo partly drawn) [Example 486] | 5.44 | 8.01 | 8.44 |
| CC(N(C)[C@H]1CC[C@H](CNc2nc(N3CCOC[C@H]3C)cc(-n3c(C(F)F)nc4ccccc43)n2)CC1)C(C)(C)O (stereo partly drawn) [Example 506] | 6.23 | 8.37 | 9.12 |
| COCCN[C@H]1CC[C@H](CNc2cc(-n3c(C(F)F)nc4ccccc43)nc(N3CCOCC3)n2)CC1 [Example 496] | 5.12 | 7.77 | 8.77 |
| COCCCN(C)[C@H]1CC[C@H](CNc2nc(N3CCOCC3)cc(-n3c(C(F)F)nc4ccccc43)n2)CC1 [Example 280] | 5.60 | 8.31 | 8.42 |
| FC[C@H]1CCCN1[C@H]1CC[C@H](CNc2cc(-n3c(C(F)F)nc4ccccc43)nc(N3CCOCC3)n2)CC1 [Example 511] | 5.70 | 8.33 | 8.92 |
| FC(F)c1nc2ccccc2n1-c1cc(N2CCOCC2)nc(NC[C@H]2CC[C@H](N3CCCCC3)CC2)n1 [Example 177] | < 5.52 | 8.32 | 8.96 |
| CCCN(CCC)[C@H]1CC[C@H](CNc2nc(N3CCOCC3)cc(-n3c(C(F)F)nc4ccccc43)n2)CC1 [Example 450] | 5.46 | 7.85 | 8.68 |
| FC[C@@H]1CCCN1[C@H]1CC[C@H](COc2cc(-n3c(C(F)F)nc4ccccc43)nc(N3CCOCC3)n2)CC1 [Example 482] | 5.47 | 8.34 | 8.34 |
| CC(C)(O)[C@@H]1CCCN1C1CCC(CNc2nc(N3CCOCC3)cc(-n3c(C(F)F)nc4ccccc43)n2)CC1 (stereo partly drawn) [Example 490] | 5.80 | 8.03 | 9.12 |
| CC(C)(O)[C@@H]1CCCN1C1CCC(CNc2cc(-n3c(C(F)F)nc4ccccc43)nc(N3CCOCC3)n2)CC1 (stereo partly drawn) [Example 487] | 5.36 | 8.10 | 8.85 |
| FC[C@@H]1CCCN1[C@H]1CC[C@H](CNc2nc(N3CCOCC3)cc(-n3c(C(F)F)nc4ccccc43)n2)CC1 [Example 515] | 5.92 | 8.22 | 8.39 |
| C#CCN(CC(C)(C)O)[C@H]1CC[C@H](CNc2nc(N3CCOCC3)cc(-n3c(C(F)F)nc4ccccc43)n2)CC1 [Example 430] | 5.64 | 8.64 | 8.74 |
| CC#CCN(CC(C)(C)O)[C@H]1CC[C@H](CNc2nc(N3CCOCC3)cc(-n3c(C(F)F)nc4ccccc43)n2)CC1 [Example 437] | 5.66 | 8.15 | 8.44 |
| CC(N(C)[C@H]1CC[C@H](CNc2nc(N3CCOC[C@@H]3C)cc(-n3c(C(F)F)nc4ccccc43)n2)CC1)C(C)(C)O (stereo partly drawn) [Example 505] | 6.35 | 8.39 | 9.34 |
| CN(CC(C)(C)O)[C@H]1CC[C@H](COc2cc(-n3c(C(F)F)nc4ccccc43)nc(N3CCOCC3)n2)CC1 [Example 488] | 5.25 | 7.52 | 8.55 |
| CCN(CC(C)(C)O)[C@H]1CC[C@H](CNc2nc(N3CCOC[C@@H]3C)cc(-n3c(C(F)F)nc4ccccc43)n2)CC1 [Example 403] | 6.15 | 8.31 | 9.09 |

More lines, main results first:

| pIC50 (Human PI3Kα) | pIC50 (human PI3Kδ enzyme) | SMILES | pIC50 [1] |
| --- | --- | --- | --- |
| 5.42 | 7.80 | FC(F)c1nc2ccccc2n1-c1cc(NC[C@H]2CC[C@H](N3CC[C@H](F)C3)CC2)nc(N2CCOCC2)n1 [Example 461] | 8.96 |
| < 5.00 | 8.21 | FC(F)c1nc2ccccc2n1-c1cc(NC[C@H]2CC[C@H](N3CCOCC3)CC2)nc(N2CCOCC2)n1 [Example 223] | 8.82 |
| 6.24 | 8.35 | C=CCN(C(C)COC)[C@H]1CC[C@H](CNc2nc(N3CCOC[C@@H]3C)cc(-n3c(C(F)F)nc4ccccc43)n2)CC1 (stereo partly drawn) [Example 491] | 8.74 |
| 5.62 | 8.23 | FC(F)c1nc2ccccc2n1-c1cc(N2CCOCC2)nc(NC[C@H]2CC[C@H](N3CCOCC3)CC2)n1 [Example 174] | 8.62 |
| 5.92 | 8.19 | COCCN(CC(C)F)[C@H]1CC[C@H](CNc2nc(N3CCOCC3)cc(-n3c(C(F)F)nc4ccccc43)n2)CC1 (stereo partly drawn) [Example 374] | 8.70 |
| 6.02 | 8.55 | CCN(C(C)COC)[C@H]1CC[C@H](CNc2nc(N3CCOCC3)cc(-n3c(C(F)F)nc4ccccc43)n2)CC1 (stereo partly drawn) [Example 435] | 9.24 |
| < 5.00 | 7.64 | COC[C@@H]1CCCN1[C@H]1CC[C@@H](CNc2cc(-n3c(C(F)F)nc4ccccc43)nc(N3CCOCC3)n2)CC1 [Example 512] | 8.00 |
| 5.24 | 8.22 | C#CCN[C@H]1CC[C@H](CNc2nc(N3CCOCC3)cc(-n3c(C(F)F)nc4ccccc43)n2)CC1 [Example 422] | 8.31 |
| 5.00 | 7.52 | O=C(CN1CCCC1)N[C@H]1CC[C@H](Oc2cc(-n3c(C(F)F)nc4ccccc43)nc(N3CCOCC3)n2)CC1 [Example 473] | 8.40 |
| 5.66 | 8.12 | FC[C@@H]1CCN1[C@H]1CC[C@H](CNc2cc(-n3c(C(F)F)nc4ccccc43)nc(N3CCOCC3)n2)CC1 [Example 539] | 9.08 |
| 5.77 | 8.05 | COCC(C)N[C@H]1CC[C@H](CNc2nc(N3CCOC[C@@H]3C)cc(-n3c(C(F)F)nc4ccccc43)n2)CC1 (stereo partly drawn) [Example 446] | 8.77 |
| 5.80 | 7.92 | CN(CC(C)(C)O)[C@H]1CC[C@H](CNc2nc(N3CCOCC3)cc(-n3c(C(F)F)nc4ccccc43)n2)CC1 [Example 375] | 8.92 |
| 5.49 | 7.66 | COCC(C)N[C@H]1CC[C@H](CNc2nc(N3CCOCC3)cc(-n3c(C(F)F)nc4ccccc43)n2)CC1 (stereo partly drawn) [Example 399] | 8.47 |
| < 5.00 | 7.85 | CN1CCC[C@H]1C(=O)N[C@H]1CC[C@H](Oc2cc(-n3c(C(F)F)nc4ccccc43)nc(N3CCOCC3)n2)CC1 [Example 500] | 8.57 |
| 6.31 | 8.31 | COCC(C)N(C)[C@H]1CC[C@H](CNc2nc(N3CCOC[C@H]3C)cc(-n3c(C(F)F)nc4ccccc43)n2)CC1 (stereo partly drawn) [Example 507] | 9.42 |
| 5.26 | 7.30 | C[C@@H]1COCCN1[C@H]1CC[C@H](CNc2cc(-n3c(C(F)F)nc4ccccc43)nc(N3CCOCC3)n2)CC1 [Example 546] | 8.66 |
| 6.21 | 8.34 | CCN(C(C)COC)[C@H]1CC[C@H](CNc2nc(N3CCOC[C@H]3C)cc(-n3c(C(F)F)nc4ccccc43)n2)CC1 (stereo partly drawn) [Example 508] | 9.43 |
| 6.11 | 8.11 | C[C@H]1COCCN1c1cc(-n2c(C(F)F)nc3ccccc32)nc(NC[C@H]2CC[C@H](N(C)CC(C)(C)O)CC2)n1 [Example 393] | 9.15 |
